Measurements as given in US20080051387A1, “TETRAHYDROPYRIDO[3,4-D]PYRIMIDINES AND RELATED ANALOGUES” (priority 2006, published 2008).

biological target: T1, chimeric human H3 receptor (Homo sapiens, UniProt Q9Y5N1); assay: Chimeric human H3 receptor screening GTP binding assay (inhibition of histamine-stimulated GTP-gamma35S binding, Example 8); format: biochemical; conditions: symbol ! in Ki; test compound 4 μM, 1 μM histamine; read-out: percent inhibition of agonist-induced GTP-gammaS binding to H3
T1 construct: rat Galpha-i2 (Gnai2, rat); made in house; host or cells: Sf9 insect cells (baculovirus); P2 membranes
T1 sequence (Q9Y5N1 with tags, fused parts or gaps): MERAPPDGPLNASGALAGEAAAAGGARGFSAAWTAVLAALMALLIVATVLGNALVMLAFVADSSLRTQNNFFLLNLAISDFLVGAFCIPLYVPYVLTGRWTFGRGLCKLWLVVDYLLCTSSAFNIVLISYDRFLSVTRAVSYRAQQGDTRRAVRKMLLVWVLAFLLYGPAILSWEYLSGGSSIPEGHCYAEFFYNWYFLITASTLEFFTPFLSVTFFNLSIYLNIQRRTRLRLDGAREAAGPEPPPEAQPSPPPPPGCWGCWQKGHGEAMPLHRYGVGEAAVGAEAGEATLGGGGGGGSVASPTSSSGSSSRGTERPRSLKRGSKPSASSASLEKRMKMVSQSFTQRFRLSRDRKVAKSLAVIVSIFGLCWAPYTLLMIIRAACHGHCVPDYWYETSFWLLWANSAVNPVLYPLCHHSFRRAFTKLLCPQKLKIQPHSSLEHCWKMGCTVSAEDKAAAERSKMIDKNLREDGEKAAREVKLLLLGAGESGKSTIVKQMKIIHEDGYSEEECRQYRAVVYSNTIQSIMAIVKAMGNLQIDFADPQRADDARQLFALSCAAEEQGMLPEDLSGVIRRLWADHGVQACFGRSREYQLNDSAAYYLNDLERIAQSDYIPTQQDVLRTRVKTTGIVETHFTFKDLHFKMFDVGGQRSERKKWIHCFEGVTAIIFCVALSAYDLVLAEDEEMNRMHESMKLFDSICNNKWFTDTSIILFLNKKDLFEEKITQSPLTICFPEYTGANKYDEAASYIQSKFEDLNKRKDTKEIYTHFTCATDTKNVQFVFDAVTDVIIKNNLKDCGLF
Protocol: This Example illustrates a representative screening assay for evaluating inhibition of histamine-stimulated GTP-gamma^35S binding. Such GTP binding activity can be used to identify H3 antagonists and inverse agonists. A compound analyzed in this assay is referred to herein as a “test compound,” and the initial identification of antagonists and inverse agonists is performed using a test compound concentration of 4 μM.
Four independent baculoviral stocks (one directing the expression of the chimeric human H3 receptor and three directing the expression of each of the three subunits of a heterotrimeric G-protein) are used to infect a culture of Sƒ9 cells as described above. P2 membranes are prepared as described above, and are resuspended by Dounce homogenization (tight pestle) in GTP binding assay buffer (50 mM Tris pH 7.4, 120 mM NaCl, 5 mM MgCl2, 2 mM EGTA, 1 mg/ml BSA, 0.2 mg/ml bacitracin, 0.02 mg/ml aprotinin, 0.01 mg/ml saponin, 10 μM GDP) and added to assay tubes at a concentration of 35 μg protein/reaction tube. Non-radiolabeled test compounds are added to separate reactions at a concentration of 4 μM along with 1 μM histamine (agonist). Reactions are initiated by the addition of 125 pM GTP-gamma^35S with a final assay volume of 0.20 ml.
After a 60-min incubation at room temperature, reactions are terminated by vacuum filtration over GF/C filters (pre-soaked in 50 mM Tris pH 7.4, 120 mM NaCl plus 0.1% BSA) followed by washing with ice-cold buffer (50 mM Tris pH 7.4, 120 mM NaCl). The amount of receptor-bound (and thereby membrane-bound) GTP-gamma^35S is determined by measuring the bound radioactivity, preferably by liquid scintillation spectrometry of the washed filters. Non-specific binding is determined using 10 uM GTP-gammaS and typically represents less than 5 percent of total binding. After subtraction of non-specific binding, data is expressed as percent inhibition of 1 μM histamine signal.
Neutral antagonists are those test compounds that reduce the histamine-stimulated GTP binding activity towards, but not below, baseline levels. In contrast, in the absence of added histamine, inverse agonists reduce the GTP binding activity of the receptor-containing membranes below baseline. Any test compound that elevates GTP binding activity above baseline in the absence of added histamine in this assay is defined as having agonist activity.

Inhibition at 4 µM, ≥ 90%:
Cc1ncccc1C(=O)N1CCc2c(ncnc2N2CCN(C3CCC3)CC2)C1 [Compound 38, 4-(4-cyclobutylpiperazin-1-yl)-7-[(2-methylpyridin-3-yl)carbonyl]-5,6,7,8-tetrahydropyrido[3,4-d]pyrimidine]
Cc1cc(C(=O)N2CCc3c(ncnc3N3CCN(C4CCC4)CC3)C2)nn1C [Compound 39, 4-(4-cyclobutylpiperazin-1-yl)-7-[(1,5-dimethyl-1H-pyrazol-3-yl)carbonyl]-5,6,7,8-tetrahydropyrido[3,4-d]pyrimidine]
CCn1nc(C)cc1C(=O)N1CCc2c(ncnc2N2CCN(C3CCC3)CC2)C1 [Compound 40, 4-(4-cyclobutylpiperazin-1-yl)-7-[(1-ethyl-3-methyl-1H-pyrazol-5-yl)carbonyl]-5,6,7,8-tetrahydropyrido[3,4-d]pyrimidine]
CC(C)c1ccc(C(=O)N2CCc3c(ncnc3N3CCN(C4CCC4)CC3)C2)cc1 [Compound 41, 4-(4-cyclobutylpiperazin-1-yl)-7-(4-isopropylbenzoyl)-5,6,7,8-tetrahydropyrido[3,4-d]pyrimidine]
CCC(=O)N1CCc2c(ncnc2N2CCN(C3CCC3)CC2)C1 [Compound 42, 4-(4-cyclobutylpiperazin-1-yl)-7-propionyl-5,6,7,8-tetrahydropyrido[3,4-d]pyrimidine]
CCCC(=O)N1CCc2c(ncnc2N2CCN(C3CCC3)CC2)C1 [Compound 43, 7-butyryl-4-(4-cyclobutylpiperazin-1-yl)-5,6,7,8-tetrahydropyrido[3,4-d]pyrimidine]
CCCCC(=O)N1CCc2c(ncnc2N2CCN(C3CCC3)CC2)C1 [Compound 44, 4-(4-cyclobutylpiperazin-1-yl)-7-pentanoyl-5,6,7,8-tetrahydropyrido[3,4-d]pyrimidine]
CC(C)CC(=O)N1CCc2c(ncnc2N2CCN(C3CCC3)CC2)C1 [Compound 45, 4-(4-cyclobutylpiperazin-1-yl)-7-(3-methylbutanoyl)-5,6,7,8-tetrahydropyrido[3,4-d]pyrimidine]
CC(C)CCC(=O)N1CCc2c(ncnc2N2CCN(C3CCC3)CC2)C1 [Compound 46, 4-(4-cyclobutylpiperazin-1-yl)-7-(4-methylpentanoyl)-5,6,7,8-tetrahydropyrido[3,4-d]pyrimidine]
O=C(CC1CCCC1)N1CCc2c(ncnc2N2CCN(C3CCC3)CC2)C1 [Compound 47, 4-(4-cyclobutylpiperazin-1-yl)-7-(cyclopentylacetyl)-5,6,7,8-tetrahydropyrido[3,4-d]pyrimidine]
O=C(CC1CCCCC1)N1CCc2c(ncnc2N2CCN(C3CCC3)CC2)C1 [Compound 48, 4-(4-cyclobutylpiperazin-1-yl)-7-(cyclohexylacetyl)-5,6,7,8-tetrahydropyrido[3,4-d]pyrimidine]
O=C(CCC1CCCC1)N1CCc2c(ncnc2N2CCN(C3CCC3)CC2)C1 [Compound 49, 4-(4-cyclobutylpiperazin-1-yl)-7-(3-cyclopentylpropanoyl)-5,6,7,8-tetrahydropyrido[3,4-d]pyrimidine]
O=C(Cc1ccccc1)N1CCc2c(ncnc2N2CCN(C3CCC3)CC2)C1 [Compound 50, 4-(4-cyclobutylpiperazin-1-yl)-7-(phenylacetyl)-5,6,7,8-tetrahydropyrido[3,4-d]pyrimidine]
COCCC(=O)N1CCc2c(ncnc2N2CCN(C3CCC3)CC2)C1 [Compound 51, 4-(4-cyclobutylpiperazin-1-yl)-7-(3-methoxypropanoyl)-5,6,7,8-tetrahydropyrido[3,4-d]pyrimidine]
O=C(C1CC1)N1CCc2c(ncnc2N2CCN(C3CCC3)CC2)C1 [Compound 52, 4-(4-cyclobutylpiperazin-1-yl)-7-(cyclopropylcarbonyl)-5,6,7,8-tetrahydropyrido[3,4-d]pyrimidine]
O=C(C1CCC1)N1CCc2c(ncnc2N2CCN(C3CCC3)CC2)C1 [Compound 53, 7-(cyclobutylcarbonyl)-4-(4-cyclobutylpiperazin-1-yl)-5,6,7,8-tetrahydropyrido[3,4-d]pyrimidine]
O=C(C1CCCC1)N1CCc2c(ncnc2N2CCN(C3CCC3)CC2)C1 [Compound 54, 4-(4-cyclobutylpiperazin-1-yl)-7-(cyclopentylcarbonyl)-5,6,7,8-tetrahydropyrido[3,4-d]pyrimidine]
O=C(C1CCCCC1)N1CCc2c(ncnc2N2CCN(C3CCC3)CC2)C1 [Compound 55, 4-(4-cyclobutylpiperazin-1-yl)-7-(cyclohexylcarbonyl)-5,6,7,8-tetrahydropyrido[3,4-d]pyrimidine]
O=C(C1CCCCCC1)N1CCc2c(ncnc2N2CCN(C3CCC3)CC2)C1 [Compound 56, 4-(4-cyclobutylpiperazin-1-yl)-7-(cycloheptylcarbonyl)-5,6,7,8-tetrahydropyrido[3,4-d]pyrimidine]
O=C(C1CCCO1)N1CCc2c(ncnc2N2CCN(C3CCC3)CC2)C1 (stereo not drawn) [Compound 57, 4-(4-cyclobutylpiperazin-1-yl)-7-(tetrahydrofuran-2-ylcarbonyl)-5,6,7,8-tetrahydropyrido[3,4-d]pyrimidine]
O=C(C1CCOC1)N1CCc2c(ncnc2N2CCN(C3CCC3)CC2)C1 (stereo not drawn) [Compound 58, 4-(4-cyclobutylpiperazin-1-yl)-7-(tetrahydrofuran-3-ylcarbonyl)-5,6,7,8-tetrahydropyrido[3,4-d]pyrimidine]
CC(C)C(=O)N1CCc2c(ncnc2N2CCN(C3CCC3)CC2)C1 [Compound 59, 4-(4-cyclobutylpiperazin-1-yl)-7-isobutyryl-5,6,7,8-tetrahydropyrido[3,4-d]pyrimidine]
CCC(C)C(=O)N1CCc2c(ncnc2N2CCN(C3CCC3)CC2)C1 (stereo not drawn) [Compound 60, 4-(4-cyclobutylpiperazin-1-yl)-7-(2-methylbutanoyl)-5,6,7,8-tetrahydropyrido[3,4-d]pyrimidine]
CCCC(C)C(=O)N1CCc2c(ncnc2N2CCN(C3CCC3)CC2)C1 (stereo not drawn) [Compound 61, 4-(4-cyclobutylpiperazin-1-yl)-7-(2-methylpentanoyl)-5,6,7,8-tetrahydropyrido[3,4-d]pyrimidine]
O=C(/C=C/c1ccccc1)N1CCc2c(ncnc2N2CCN(C3CCC3)CC2)C1 [Compound 62, 4-(4-cyclobutylpiperazin-1-yl)-7-[(2E)-3-phenylprop-2-enoyl]-5,6,7,8-tetrahydropyrido[3,4-d]pyrimidine]
COc1ccc(C(=O)N2CCc3c(ncnc3N3CCN(C4CCC4)CC3)C2)cc1Cl [Compound 63, 7-(3-chloro-4-methoxybenzoyl)-4-(4-cyclobutylpiperazin-1-yl)-5,6,7,8-tetrahydropyrido[3,4-d]pyrimidine]
Cc1ccc(C)c(C(=O)N2CCc3c(ncnc3N3CCN(C4CCC4)CC3)C2)c1 [Compound 64, 4-(4-cyclobutylpiperazin-1-yl)-7-(2,5-dimethylbenzoyl)-5,6,7,8-tetrahydropyrido[3,4-d]pyrimidine]
COCCOCC(=O)N1CCc2c(ncnc2N2CCN(C3CCC3)CC2)C1 [Compound 65, 4-(4-cyclobutylpiperazin-1-yl)-7-[(2-methoxyethoxy)acetyl]-5,6,7,8-tetrahydropyrido[3,4-d]pyrimidine]
Fc1ccccc1CN1CCc2c(ncnc2N2CCN(C3CCC3)CC2)C1 [Compound 66, 4-(4-cyclobutylpiperazin-1-yl)-7-(2-fluorobenzyl)-5,6,7,8-tetrahydropyrido[3,4-d]pyrimidine]
Fc1cccc(CN2CCc3c(ncnc3N3CCN(C4CCC4)CC3)C2)c1 [Compound 67, 4-(4-cyclobutylpiperazin-1-yl)-7-(3-fluorobenzyl)-5,6,7,8-tetrahydropyrido[3,4-d]pyrimidine]
